# Test results: PMC11435248, “Auraptene Boosts the Efficacy of the Tamoxifen Metabolites Endoxifen and 4-OH-Tamoxifen in a Chemoresistant ER+ Breast Cancer Model” (Pharmaceutics, 2024)
# Target: T1, eIF4A1 (Homo sapiens, UniProt P60842)
# T1 construct: recombinant eIF4A1 from pET19bm, 10-histidine tract at the N-terminal with Prescission Protease site, expressed in E. coli Rosetta Star
# Assay: fluorescence quenching of purified recombinant eIF4A ([…] auraptene)
# Format: binding
# T1 sequence (P60842 2-406): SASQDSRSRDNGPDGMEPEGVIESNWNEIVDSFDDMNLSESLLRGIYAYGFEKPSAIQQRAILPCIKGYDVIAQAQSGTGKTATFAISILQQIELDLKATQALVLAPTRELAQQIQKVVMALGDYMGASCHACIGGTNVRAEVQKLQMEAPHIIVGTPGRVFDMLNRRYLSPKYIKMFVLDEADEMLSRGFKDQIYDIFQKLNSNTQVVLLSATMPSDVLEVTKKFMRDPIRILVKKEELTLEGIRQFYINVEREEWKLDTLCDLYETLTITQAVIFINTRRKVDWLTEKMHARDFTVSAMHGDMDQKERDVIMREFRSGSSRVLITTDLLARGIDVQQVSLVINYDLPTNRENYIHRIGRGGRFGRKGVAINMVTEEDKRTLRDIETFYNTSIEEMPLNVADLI
compound,measurement,value
"CC(C)=CCC/C(C)=C/COc1ccc2ccc(=O)oc2c1 [Aur, auraptene]",fluorescence quenching of purified recombinant eIF4A (50 and 100 μM auraptene),"a reduction in the emission intensity was observed, resulting from a quenching phenomenon, suggesting that auraptene binds with the eIF4A"
